The results in this text go back to PubChem BioAssay AID2202554 (NIEHS Division of Translational Toxicology (DTT)).

This series concerns S. typhimurium/E. coli reverse mutation, colony counts. Kind of series: Bacterial reverse mutation test (aka Ames test) summary data. In a few lines:
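S. typhimurium his⁻ strains (TA97–TA1538) and E. coli WP2 uvrA pKM101 trp⁻, dosed over a range with or without rat, hamster or mouse liver S9. Preincubated 20 min at 37° C (or plate incorporation), plated in agar, incubated usually two days. Revertant colonies counted against negative controls.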

The structures appear in SMILES notation. Results filed as inconclusive are left out. Active and inactive are the calls of the source. How the calls were made is not given here.

On to `O=C(Cc1ccccc1)OCc1ccccc1`, for which the outcome is “inactive; negative”.
With `CC=Cc1ccc(O)c(OC)c1` the entry was “inactive; negative”.
With `COP(=O)(OC)O/C(=C\Cl)c1cc(Cl)c(Cl)cc1Cl` the entry was “inactive; negative”.
With `C[C@H](Cn1cnc2c(N)ncnc21)OCP(=O)(O)O` the entry was “active; positive”; with `O=c1c(O)c(-c2ccc(O)c(O)c2)oc2cc(O)cc(O)c12`, “active; positive”.
In the case of `Nc1ccc(Br)cc1`, the outcome was “inactive; negative”.
Take `CN(C)CCN(Cc1ccsc1)c1ccccn1`: the outcome is “inactive; negative”.
With `Cc1ccncc1` the entry was “inactive; negative”.
With `COc1c(C(C)(C)C)cc([N+](=O)[O-])c(C)c1[N+](=O)[O-]` the entry was “inactive; negative”.
With `Cc1ccc2nc(-c3ccc(N)cc3)sc2c1S(=O)(=O)O` the entry was “active; positive”.
Regarding `O.O=S(=O)([O-])[O-].[Mn+2]`, the outcome is “inactive; negative”.
Consider `C1CCC2OC2C1` (stereo unspecified), for which the outcome is “active; positive”.
With `C=C(C)C(=O)OCC(Br)CBr` (stereo unspecified) the entry was “active; positive”; with `Cc1ccc(C(C)(C)O)cc1`, “inactive; negative”; with `CCCCC(CC)COS(=O)(=O)O` (stereo unspecified), “inactive; negative”.
With `CCc1ccccc1N` the entry was “inactive; negative”; with `C=C(C#N)C(=O)OCC`, “inactive; negative”; with `COc1cc(-c2ccc(N=C=O)c(OC)c2)ccc1N=C=O`, “active; positive”.
With `NC(=O)c1cccnc1` the entry was “inactive; negative”; with `Nc1ccc(N)c(Cl)c1`, “active; positive”.
With `O=C(Nc1ccccc1SSc1ccccc1NC(=O)c1ccccc1)c1ccccc1`, the outcome was “inactive; negative”.
In the case of `N#CCCCl`, the outcome was “active; positive”.
Turning to `CCOC(=O)CC(SP(=O)(OC)OC)C(=O)OCC` (stereo unspecified), the outcome is “inactive; negative”.
As for `C[C@H]1CCC[C@H](O)CCCCCc2cc(O)cc(O)c2C(=O)O1`, the outcome is “inactive; negative”.
As to `CCOC(=O)C1OC1(C)c1ccccc1` (stereo unspecified), the outcome is “inactive; negative”.
On to `c1cnc2c(c1)ccc1cccnc12`, for which the outcome is “inactive; negative”.
With `CCCCC(CC)COC(=O)C(C#N)=C(c1ccccc1)c1ccccc1` (stereo unspecified) the entry was “inactive; negative”.
On to `c1ccc(Nc2ccccc2)cc1`, for which the outcome was “inactive; negative”.
With `CC(=O)/C=C/c1ccccc1` the entry was “active; positive”; with `CCC(=O)C=CC1C(C)=CCCC1(C)C` (stereo unspecified), “inactive; negative”.
With `c1ccsc1` the entry was “inactive; negative”; with `ClC1=C(Cl)C2(Cl)C3C(Cl)C(Cl)CC3C1(Cl)C2(Cl)Cl` (stereo unspecified), “inactive; negative”; with `O=C1CCO1`, “active; positive”.
With `C=C(C)CCl` the entry was “active; weakly positive”; with `Nc1cc(Cl)c(N)c(Cl)c1`, “active; positive”; with `C=CC`, “active; positive”.
Turning to `CCC[CH2][Sn]([CH2]CCC)([O]C(C)=O)[O]C(C)=O`, the outcome is “inactive; negative”.
`C=CC(C)(O)CCC=C(C)C` (stereo unspecified): the outcome is “inactive; negative”.
With `COP(=O)(O)OC` the entry was “inactive; negative”; with `Cc1ccc2ncccc2c1`, “active; positive”; with `CCCCOB(OCCCC)OCCCC`, “inactive; negative”.
With `Nc1nc(N)c2nc(-c3ccccc3)c(N)nc2n1` the entry was “inactive; negative”; with `O.O.O.O.O.O.O.O=S(=O)([O-])[O-].[Co+2]`, “active; weakly positive”.
With `OC(CCl)CCl` the entry was “active; positive”; with `c1ccc2ncccc2c1`, “active; positive”; with `CC=C(C)C#N`, “inactive; negative”.
Take `COc1cc(N)ccc1C`: the outcome is “active; positive”.
With `Cc1c(C(=O)O)cccc1[N+](=O)[O-]` the entry was “active; positive”; with `CCNNCC`, “inactive; negative”; with `ClSC(Cl)(Cl)Cl`, “active; positive”.
With `ClC(Cl)=C(c1ccc(Cl)cc1)c1ccc(Cl)cc1` the entry was “inactive; negative”.
With `Nc1n[nH]c(N)n1` the entry was “inactive; negative”; with `Nc1ccn([C@@H]2CS[C@H](CO)O2)c(=O)n1`, “inactive; negative”; with `C=CC1CC=CCC1` (stereo unspecified), “inactive; negative”.
As to `CN(C)c1ccc(C(=C2C=CC(=[N+](C)C)C=C2)c2ccccc2)cc1`, the outcome was “inactive; negative”.
With `C=C(C)C(=O)OCCCCCCCCCC` the entry was “inactive; negative”.
With `Nc1cc(S(=O)(=O)[O-])cc2cc(S(=O)(=O)[O-])c(N=Nc3ccc(-c4ccc(N=Nc5c(S(=O)(=O)[O-])cc6cc(S(=O)(=O)[O-])cc(N)c6c5[O-])c([O-])c4)cc3[O-])c([O-])c12.[Cu+2].[Cu+2].[Na+].[Na+].[Na+].[Na+]` the entry was “inactive; negative”; with `C=CCCC#N`, “inactive; negative”; with `Cc1ccc([N+](=O)[O-])c(C)c1`, “active; positive”.
With `C[N+](C)(C)CCCl` the entry was “inactive; negative”.
With `CCCBr`, the outcome was “inactive; negative”.
With `CCC(C)O` (stereo unspecified) the entry was “inactive; negative”.
Take `C=C(C)C(=O)NCCCN(C)C`: the outcome was “inactive; negative”.
With `O=C(O)COc1ccc(Cl)cc1Cl` the entry was “inactive; negative”.
With `Cc1cc(C)cc([N+](=O)[O-])c1` the entry was “active; positive”; with `CN(C)c1nc(N(C)C)nc(N(C)C)n1`, “inactive; negative”; with `COc1ccc(N)cc1`, “active; positive”.
With `Nc1ccc2cc(S(=O)(=O)O)c(N=Nc3ccc(-c4ccc(N=Nc5c(S(=O)(=O)O)cc6cc(S(=O)(=O)O)cc(N)c6c5O)cc4)cc3)c(O)c2c1` the entry was “active; positive”.
Take `[Na+]`: the outcome is “inactive; negative”.
With `Nc1cc(Cl)cc(Cl)c1` the entry was “inactive; negative”; with `C=C(C)C(=O)OCCC`, “inactive; negative”.
With `CCCCCCCCC=O` the entry was “inactive; negative”.
With `CCOC(=O)CC(C)O` (stereo unspecified) the entry was “inactive; negative”; with `O=C1NC2NC(=O)NC2N1` (stereo unspecified), “inactive; negative”.
`CC(=O)Nc1ccc(N=Nc2cc(C)ccc2O)cc1`: the outcome was “active; positive”.
Regarding `Clc1cc(Cl)c(Cl)c(Cl)c1Cl`, the outcome was “inactive; negative”.
With `CC(=O)CC(C)(C)O`, the outcome is “inactive; negative”.
With `CCCSC(=O)Cl` the entry was “active; positive”; with `C=CCc1ccc(O)c(OC)c1`, “inactive; negative”; with `CCCCC(CC)COC(=O)c1ccc(C(=O)OCC(CC)CCCC)c(C(=O)OCC(CC)CCCC)c1` (stereo unspecified), “inactive; negative”.
With `Cc1c(N)cccc1[N+](=O)[O-]` the entry was “active; positive”; with `COc1ccc(OC)c(N=Nc2c(O)ccc3ccccc23)c1`, “active; positive”.
With `C=C`, the outcome is “inactive; negative”.
With `CCc1cccc(C)c1N(C(=O)CCl)C(C)COC` (stereo unspecified) the entry was “inactive; negative”.
With `[Li+]` the entry was “inactive; negative”.
Turning to `Cc1cc(-c2ccc(N=Nc3c(S(=O)(=O)O)cc4cc(S(=O)(=O)O)cc(O)c4c3O)c(C)c2)ccc1N=Nc1c(S(=O)(=O)O)cc2cc(S(=O)(=O)O)cc(O)c2c1O`, the outcome was “inactive; negative”.
With `CCCCCCCC/C=C\CCCCCCCC(=O)O` the entry was “inactive; negative”; with `[Cl][In]([Cl])[Cl]`, “inactive; negative”; with `O=[N+]([O-])c1ccc(Nc2ccc(Nc3ccccc3)c(S(=O)(=O)O)c2)c([N+](=O)[O-])c1`, “active; positive”.
In the case of `CCN(Cc1ccccc1)c1ccccc1`, the outcome was “inactive; negative”.
With `COc1c2ccoc2cc2oc(=O)ccc12` the entry was “active; positive”; with `CCCCCCCCCCCCCC(=O)O`, “inactive; negative”; with `O=[N+]([O-])c1ccccc1Nc1ccccc1`, “inactive; negative”.
With `CCOc1ccc(N)cc1` the entry was “active; positive”; with `O=C(O)C(F)(F)C(F)(F)C(F)(F)C(F)(F)C(F)(F)C(F)(F)C(F)(F)C(F)(F)C(F)(F)C(F)(F)C(F)(F)F`, “inactive; negative”; with `O=c1cc(-c2ccccc2)oc2ccc3ccccc3c12`, “inactive; negative”.
With `CCCCCCCCCCCCCl` the entry was “inactive; negative”; with `C1CCC2CCCCC2C1` (stereo unspecified), “inactive; negative”; with `COS(C)(=O)=O`, “active; positive”.
Take `CC1=CC[C@H]2C(C)=CC[C@@H](C(C)C)[C@@H]2C1`: the outcome was “inactive; negative”.
With `CCC[CH2][Sn]([CH2]CCC)([CH2]CCC)[O][Sn]([CH2]CCC)([CH2]CCC)[CH2]CCC` the entry was “inactive; negative”.
With `CC[C@]12CCCN3CCc4c(n(c5ccccc45)[C@@](O)(C(=O)OC)C1)[C@@H]32`, the outcome is “inactive; negative”.
With `CCCCC(CC)COC(=O)CCCCCCCCC(=O)OCC(CC)CCCC` (stereo unspecified) the entry was “inactive; negative”; with `Nc1cc(S(=O)(=O)O)cc2cc(S(=O)(=O)O)c(N=Nc3ccc(-c4ccc(N=Nc5c(S(=O)(=O)O)cc6cc(S(=O)(=O)O)cc(N)c6c5O)cc4)cc3)c(O)c12`, “inactive; negative”; with `Nc1ccccc1N`, “active; positive”.
With `COc1ccc2nc(N)sc2c1` the entry was “active; positive”.
